Experimental findings from article PMC11885754, “Engineered phenylalanine hydroxylase coupled with an effective cofactor synthesis and regeneration system for high-yield production of 5-hydroxytryptophan” (Bioresources and Bioprocessing, 2025) are described below.

Each structure is given as a SMILES string.

In the experiment the target is T1, XcPAH (Xanthomonas campestris, UniProt Q8PE27).
T1 construct: gene pah; full length 296 aa, synthesized gene in pET30a (BamHI/XhoI) co-expressed with CvPCD and EcFolM in E. coli BL21(DE3)-derived strain TRP1
T1 sequence (Q8PE27 1-296): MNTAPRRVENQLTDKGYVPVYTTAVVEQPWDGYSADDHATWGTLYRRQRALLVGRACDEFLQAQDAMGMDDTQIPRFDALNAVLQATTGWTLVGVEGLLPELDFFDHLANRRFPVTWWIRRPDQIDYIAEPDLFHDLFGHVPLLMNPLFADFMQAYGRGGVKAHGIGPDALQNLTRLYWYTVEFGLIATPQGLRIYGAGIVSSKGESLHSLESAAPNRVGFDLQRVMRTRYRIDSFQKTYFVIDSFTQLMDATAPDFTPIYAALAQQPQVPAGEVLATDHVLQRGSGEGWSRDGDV
The experiment is described as follows: whole-cell conversion of L-Phe to L-Tyr, HPLC. The experiment is classed as cell-based. As to conditions: E. coli TRP1 cells, 10 mM L-Phe, endogenous MH4 with CvPCD-EcFolM regeneration, 25 °C, 24 h, pH about 7.0.

`N[C@@H](Cc1ccccc1)C(=O)O` [L-Phe]: the “whole-cell conversion of L-Phe to L-Tyr, HPLC” value was “(TRP1-XC1 and TRP1-CT1) were capable of converting L-Phe into L-Tyr”.
